Measured values taken from paper PMC9460261, “Need for a Standardized Translational Drug Development Platform: Lessons Learned from the Repurposing of Drugs for COVID-19” (Microorganisms, 2022).
Where two headings read alike, the source gives them in different places.

What was measured:
[1] = female, LGV Golden Syrian, hamster, in vivo
[2] = in vitro; conditions: African green monkey, Selectivity Index (Vero cells)
[3] = system: SARS-CoV-2 in Vero cells; experiment: microbe, parasite or virus in culture; conditions: Severe acute respiratory syndrome coronavirus 2, Vero
[4] = system: SARS-CoV-2; conditions: read-out: SARS-CoV-2 EC50, cited from earlier work
[5] = Population PK model in human (digitized literature data); conditions: modelled from digitized data
[6] = in vitro; conditions: bovine
[7] = system: SARS-CoV-2 in Calu-3 cells; experiment: microbe, parasite or virus in culture; conditions: Severe acute respiratory syndrome coronavirus 2, Calu-3, read-out: Calu-3 cells Average IC50
[8] = in vitro; conditions: human, plasma
[9] = system: SARS-CoV-2 in Calu-3 cells
[10] = system: SARS-CoV-2 in Vero cells
[11] = in vitro; conditions: hamster, plasma
[12] = system: SARS-CoV-2; type: in vivo, Syrian hamster; conditions: for Activity in SARS-CoV-2 Hamster Model: doses, frequency, duration as in Table 1
[13] = Population PK model from satellite PK studies in hamster
[14] = cited from earlier work
[15] = Plasma protein binding, hamster; conditions: hamster, plasma
[16] = Binding to antiviral assay medium by Rapid Equilibrium Dialysis; conditions: bovine
[17] = system: SARS-CoV-2 in A549-Dual hACE2-TMPRSS2 cells; design: method as in Abdelnabi et al., 2022 [60]; conditions: ref Abdelnabi et al., 2022 [60]; cited from earlier work
[18] = read-out: VERO cells Average IC50, With Pgp pump inhibitor, 2 μM CP-100356, * one replicate only
[19] = read-out: VERO cells Average IC50, Without Pgp pump inhibitor, * one replicate only
[20] = human, ref 68 (ambroxol), 71-73 (cepharanthine)
[21] = human, ref 68 (ambroxol), 71-73 (cepharanthine), 78 (fluvoxamine), 80 (molnupiravir)
[22] = hamster of the study's median weight (80-131 g)

Compound | CL/F, elimination clearance, population estimate (%RSE) [1] | KA, absorption rate constant, population estimate (%RSE) [1] | VC/F, central volume of distribution, population estimate (%RSE) [1] | selectivity ratio ([2]; With Pgp pump inhibitor) | selectivity ratio ([2]; Without Pgp pump inhibitor) | IC50 [3, 18] [µM] | IC50 [3, 19] [µM] | EC50 ([4]; host cell VeroE6/TMPRSS2) [µM] | fraction unbound [6] | IC50 [7] [µM] | fraction unbound [8] | Activity In Vitro; Potency EC50 or IC50 < 10 µM; Calu-3 Cells [9] | Activity In Vitro; Potency EC50 or IC50 < 10 µM; Vero Cells [10] | Toxicity observed (^T), Vero Cells [10] | fraction unbound [11] | Activity in SARS-CoV-2 Hamster Model [12] | KA, absorption rate constant, population estimate (%RSE) [13, 22] | Q/F (Q1/F), inter-compartment clearance, population estimate (%RSE) [13, 22] | VP/F, peripheral volume of distribution, population estimate (%RSE) [13, 22] | fraction unbound [16] | other results
COc1ccc2cc1Oc1ccc(cc1)C[C@H]1c3c(cc4c(c3Oc3cc5c(cc3OC)CCN(C)[C@@H]5C2)OCO4)CCN1C [Cepharanthine, cepharanthine] | 804 (25.0) mL/h | 1.52 (27.0) h-1 | 66400 (12.5) mL | 17.2 | 9.7 | 1.9 | 4.5 | 0.35 | 0.643 | > 50 | 0.02 | No (Potency EC50 or IC50 < 10 µM) | Yes (Potency EC50 or IC50 < 10 µM) | Yes ^T | 0.018 | No |  |  |  |  | F, population estimate (%RSE) ([5]; adult 70 kg): 0.116 (7.3%); KA, population estimate (%RSE) ([5]; adult 70 kg): 0.187 (11.0%) h-1; Q2/F, population estimate (%RSE) ([5]; adult 70 kg): 131 (14.2%) L/h; VP2/F, population estimate (%RSE) ([5]; adult 70 kg): 438 (26.5%) L; Q/F (Q1/F), population estimate (%RSE) [5, 20]: 258 (7.6%) L/h; VP/F (VP1/F), population estimate (%RSE) [5, 20]: 9190 (7.3%) L; CL/F, population estimate (%RSE) [5, 21]: 74.4 (5.5%) L/h; VC/F, population estimate (%RSE) [5, 21]: 110 (10.8%) L
CC(C)/N=c1\cc2n(-c3ccc(Cl)cc3)c3ccccc3nc-2cc1Nc1ccc(Cl)cc1 [Clofazimine, clofazimine] | 49.4 (7.2) mL/h |  | 356 (11.9) mL | 208 | 8.4 |  |  |  | 0.003 | 8.4 | < 0.001 | Yes (Potency EC50 or IC50 < 10 µM) | Yes (Potency EC50 or IC50 < 10 µM) | Yes ^T | < 0.001 | No | 0.38 (11.0) h-1 | 235 (10.4) mL/h | 2250 (28.0) mL |  | Dose effect on F (power) ([13]; covariate, hamster model): -0.109 (16.2); Dose effect on KA (exp) ([13]; covariate, hamster model): -0.0094 (20.4); Q2/F, population estimate (%RSE) ([13]; hamster 120 g): 90.5 (20.6) mL/h; VP2/F, population estimate (%RSE) ([13]; hamster 120 g): 7390 (14.9) mL; IC50 ([3]; read-out: VERO cells Average IC50, With Pgp pump inhibitor): 0.2 µM; IC50 ([3]; read-out: VERO cells Average IC50, Without Pgp pump inhibitor): 5.9 µM; EC50 ([4]; host cell Vero E6, ref 39): 0.31 µM
COC(=O)N[C@H](C(=O)N1CCC[C@H]1c1nc(-c2ccc(-c3ccc(-c4c[nH]c([C@@H]5CCCN5C(=O)[C@@H](NC(=O)OC)C(C)C)n4)cc3)cc2)c[nH]1)C(C)C [Daclatasvir, daclatasvir] |  |  |  |  |  | 7.6 | 19.8 |  |  | 24.4 |  | No (Potency EC50 or IC50 < 10 µM) |  |  |  | No | 0.415 (5.84) h-1 | 33.4 (25.5) mL/h | 438 (25.6) mL | 0.209 | Fraction unbound in plasma, human ([14]; literature, ref 61 (N-desethylamodiaquine), 62 (atazanavir), 63 (daclatasvir), 64 (favipiravir), 65 (ivermectin), 66 (tizoxanide), 67 (sofosbuvir)): 1%; selectivity ratio ([2]; With Pgp pump inhibitor, T: toxicity observed): > 6.6; selectivity ratio ([2]; Without Pgp pump inhibitor, T: toxicity observed): > 2.5; CL/F, elimination clearance, population estimate (%RSE) [13, 22]: 239 (19.6) mL/h; VC/F, central volume of distribution, population estimate (%RSE) [13, 22]: 86.3 (27.0) mL; EC50 ([4]; host cell Calu-3): 1.1 µM; EC50 ([4]; host cell HuH-7): 0.6 µM; EC50 ([4]; host cell Vero, ref 26): 0.8 µM; fraction unbound [15]: 0.055; Activity In Vitro; Potency EC50 or IC50 < 10 µM; Vero Cells ([10]; in the presence of a P-glycoprotein inhibitor (^Pgp)): Yes (Potency EC50 or IC50 < 10 µM); Activity in SARS-CoV-2 Hamster Model ([12]; listed as daclatasvir): no activity
NC(=O)c1nc(F)c[nH]c1=O [Favipiravir, favipiravir] | 58.2 (6.06) mL/h | 0.774 (7.71) h-1 | 11.7 (14.7) mL |  |  | > 50 | > 50 | > 64 |  | > 50 |  | No (Potency EC50 or IC50 < 10 µM) | No (Potency EC50 or IC50 < 10 µM) |  | 0.821 | Yes |  |  |  | 0.993 | Fraction unbound in plasma, human ([14]; human, plasma): 46%; Q/F (Q1/F), inter-compartment clearance, population estimate (%RSE) [1]: 1.80 (12.7) mL/h; VP/F, peripheral volume of distribution, population estimate (%RSE) [1]: 11.6 (8.7) mL; EC50 ([4]; host cell Vero E6, ref 17): 446 µM; EC50 ([4]; host cell Vero E6, ref 31): > 100 µM; EC50 ([4]; host cell Vero E6, ref 32): > 50 µM; EC50 ([4]; host cell Vero E6, ref 34): 117 µM; EC50 ([4]; host cell Vero E6, ref 35): 62 µM; EC50 ([4]; host cell Vero, ref 25): > 500 µM; EC50 ([4]; host cell Vero, ref 36): > 20 µM; Activity in SARS-CoV-2 Hamster Model ([12]; listed as favipiravir): demonstrated in vivo efficacy
CC(C)(C)[C@H](NC(=O)C(F)(F)F)C(=O)N1C[C@H]2[C@@H]([C@H]1C(=O)N[C@H](C#N)C[C@@H]1CCNC1=O)C2(C)C [Nirmatrelvir, nirmatrelvir] |  |  |  |  |  | < 0.05 | 3.4 |  |  | 0.3 |  | Yes (Potency EC50 or IC50 < 10 µM) | Yes (Potency EC50 or IC50 < 10 µM) |  |  | Yes |  |  |  | 0.898 | EC50 [17]: 110 nM; fraction unbound [15]: 0.621; Activity in SARS-CoV-2 Hamster Model ([12]; listed as nirmatrelvir): demonstrated in vivo efficacy; Lung TCID50 of SARS-CoV-2 in the hamster model ([12]; hamster, in vivo): significant reduction
